According to US7928088B2, “Th1 cell differentiation accelerator” (priority 2006, dated 2011):
Like-named read-outs stand apart in the source and are kept apart here.

Columns and labels:
human naive CD4T cells [1] = experiment: Human Th2 differentiation induction culture with intracellular IFNγ/IL-4 staining and flow cytometry; type: cell-based; details: for ratio of IFNγ-producing cells (in words) / ratio of IL-4-producing cells (in words) / IFNγ+IL-4− cells (%) / IFNγ−IL-4+ cells (%): Th2 differentiation inducing conditions; for IFNγ+IL-4− cells (%) / IFNγ−IL-4+ cells (%): crude human CD4T cells; for IFNγ+IL-4− cells (%): control 18.1; for IFNγ−IL-4+ cells (%): control 19.4
Protocol: Separation of human naive CD4T cells was performed using an automated magnetic cell sorter (autoMACS Miltenyi Biotec GmbH) by the method described below. Whole blood was drawn by venous paracentesis from six healthy donor volunteers at 24 to 50 years of age. 50 ml of human peripheral blood was diluted two fold with 50 ml of a D-PBS solution (Sigma-Aldrich Inc). Next, 25 ml of the above-described diluted peripheral blood was gradually overlain in four centrifugal tubes containing 12.5 ml of Ficoll-Paque Plus (Amersham Biosciences), and the tubes were centrifuged using a centrifuge at room temperature and 950 G for 30 minutes. After centrifugation, lymphocytes present in the intermediate layer between the Ficoll-Paque and the supernatant were recovered, and suspended in a D-PBS solution containing 3% fetal calf serum (FCS: JRH Biosiences) and 2 mM EDTA (Dojindo Inc) (hereinafter, referred to as MACS buffer); the suspension was centrifuged using a centrifuge at 4° C. and 500 G for 5 minutes to sediment the lymphocytes. The resulting lymphocyte pellet was again suspended in MACS buffer; the suspension was centrifuged at 500 G for 5 minutes to sediment the lymphocytes, and twice washed to yield a lymphocyte pellet. This cell pellet was again suspended in the MACS buffer to obtain a cell density of 1×10^8 cells/ml. To 1×10^7 lymphocytes, 2 μL of an FITC-labeled anti-human CD8 antibody (BD BioScience Pharmingen) and 2 μL of an FITC-labeled anti-human CD45RO antibody (BD BioScience Pharmingen) were added, and they were reacted on ice for 30 minutes to thereby bind each antibody. The MACS buffer was added to the reaction mixture, and the mixture was centrifuged and twice washed at 4° C. Next, 10 μL of anti-FITC microbeads (Miltenyi Biotec GmbH) was added to 1×10^7 lymphocytes coupled with each antibody, and they were reacted with each other on ice for 15 minutes. The MACS buffer was added to the reaction mixture, and the mixture was centrifuged and twice washed at 4° C. The cell pellet obtained was suspended in the MACS buffer to obtain a cell density of 5×10^7/ml, and the suspension was passed through a nylon mesh (Abe Kagaku), after which a CD8- and CD45RO-double-negative fraction was recovered using an automated magnetic cell sorter (AutoMACS Miltenyi Biotec GmbH) to thereby separate human naive CD4T cells, which were supplied for the following experiments.
Under Th2 differentiation conditions, the cells were stimulated on a plate having the anti-CD3 antibody immobilized thereon for 2 days in a differentiation induction medium containing 50 U/ml (final concentration) IL-2 (Immunace, Shionogi & Co., Ltd.), 1 ng/ml (final concentration) IL-4, and 5 μg/ml (final concentration) anti-IFNγ antibody (Pharmingen, and the cells were transferred to a plate without immobilized anti-CD3 antibody, and cultured for 5 days. Furthermore, in the case of Th2 cell differentiation, following the 2 days, 5 days of differentiation induction was performed in two consecutive cycles.
Unless otherwise specified, the final concentrations of CW, LAM/LM, PIM2 and PIM6 were adjusted to 100 μg/ml.
Cells undergoing Th1 differentiation induction (Th1-induced cells) and cells undergoing Th2 differentiation induction (Th2-induced cells) were cultured and stimulated in the presence of Monensin (Sigma) in a medium supplemented with PMA (Phorbol-12-Myristate-13-Acetate, Sigma-Aldrich) and Ionomycin (Calbiochem) for 4 hours. After stimulation, intracellular staining was performed by the method described below, the cells were analyzed using a cell analyzer (FACScalibur), and the degree of Th1 or Th2 differentiation induction was evaluated. […]

human naive CD4T cells [2] = type: cell-based; details: for IFNγ+IL-4− cells (%) / ratio of IFNγ-producing cells (in words): Th1 differentiation inducing conditions; for IFNγ+IL-4− cells (%): crude human CD4T cells; for ratio of IFNγ-producing cells (in words): summary of Tables 4 and 5
[3] = 10 μg/ml, Table 4 test, vehicle 51.2
[4] = 30 μg/ml, Table 5 test, vehicle 60.6
[5] = 100 μg/ml, Table 4 test, vehicle 51.2
[6] = 100 μg/ml, Table 5 test, vehicle 60.6

Row | Substance | ratio of IFNγ-producing cells (in words) (human naive CD4T cells [1]; FIG. 13 and Table 6) | ratio of IL-4-producing cells (in words) (human naive CD4T cells [1]; FIG. 13 and Table 6) | IFNγ+IL-4− cells (%) (human naive CD4T cells [1]; 3 μg/ml) | IFNγ−IL-4+ cells (%) (human naive CD4T cells [1]; 3 μg/ml) | IFNγ+IL-4− cells (%) (human naive CD4T cells [1]; 30 μg/ml) | IFNγ−IL-4+ cells (%) (human naive CD4T cells [1]; 30 μg/ml) | IFNγ+IL-4− cells (%) (human naive CD4T cells [2]; [3]) | IFNγ+IL-4− cells (%) (human naive CD4T cells [2]; [4]) | IFNγ+IL-4− cells (%) (human naive CD4T cells [2]; [5]) | IFNγ+IL-4− cells (%) (human naive CD4T cells [2]; [6]) | ratio of IFNγ-producing cells (in words) (human naive CD4T cells [2]) | number of IL-4-producing cells (in words) (human naive CD4T cells [1]; Th2 differentiation conditions, T cells from six healthy human volunteers, 100 μg/ml, FIGS. 8 and 9) | ratio of IFNγ-producing cells (in words) (human naive CD4T cells [1]; 100 μg/ml, FIG. 7B) | ratio of IL-4-producing cells (in words) (human naive CD4T cells [1]; 100 μg/ml, FIG. 7B) | number of IFNγ-producing cells (in words) (human naive CD4T cells [2]; Th1 differentiation conditions, T cells from six healthy human volunteers, 100 μg/ml, FIGS. 8 and 9) | potential to induce Th1 differentiation (human naive CD4T cells [2]; Th1 differentiation induction, 100 μg/ml, FIG. 7B)
1 | lipoarabinomannan [LAM] | dose-dependently increased | dose-dependently suppressed | 26.9% | 17.2% | 34.8% | 11.9% | 55.9% | 63.1% | 55.4% | 67.6% | significantly increased | – | – | – | – | –
2 | cardiolipin [reference compound] | – | – | – | – | – | – | – | – | – | – | – | increased | did not increase | increased | did not increase | did not exhibit the potential to induce Th1 differentiation
3 | lipomannan [LM] | dose-dependently increased | dose-dependently suppressed | 29.5% | 14.3% | 38.4% | 8.8% | 56.7% | 70.5% | 67.9% | 69.1% | significantly increased | – | – | – | – | –
